Experimental data: US20250214945A1, “THIOBENZIMIDAZOLE DERIVATIVE OR PHARMACEUTICALLY ACCEPTABLE SALT THEREOF, AND USE THEREOF” (KOREA UNIVERSITY RESEARCH AND BUSINESS FOUNDATION, priority 2022, published 2025)

Tests used:
[1] = test system: Human triple-negative breast cancer (TNBC) cell line MDA-MB-231; assay: MTS cell viability assay, MDA-MB-231 breast cancer cell line; format: cell-based; conditions: 0 to 10 μM, FIG. 3, one range stated for both cell lines and three compounds
Procedure: (§1) Human triple-negative breast cancer (TNBC) cell line MDA-MB-231 (Cell seeding numbers: 1(M231)×10^4 cells/wells (confluency ≥25%) and HER2 positive breast cancer (HER2^+ BC) cell line JIMT-1 (Cell seeding numbers: 1.2(JIMT)×10^4 cells/wells (confluency ≥25%)) were used in the experiments.
(§2) The above mentioned cell lines were cultured under a 5% CO2 environment at 37° C. in Dulbecco's modified Eagle's medium (DMEM) containing 10% fetal bovine serum (FBS), streptomycin-penicillin (100 U/mL) and Fungizone ([…]), respectively.
(§3) The human breast cancer cell lines MDA-MB-231 and JIMT-1 were treated with thiobenzimidazole derivatives of Chemical Formula 1-1 to Chemical Formula 1-17 at concentrations of 0, 0.5, 1 and 5 μM for 72 hours, respectively, and then cell viability was measured by MTS assay. The MTS assay was performed by attaching cells to 96-well plates for 24 hours, treating them with the above mentioned thiobenzimidazole derivatives for 72 hours, and then developing them with MTS (3-(4,5-dimethylthiazol-2-yl)-5-(3-carboxymethoxyphenyl)-2-(4-sulfophenyl)-2H-tetrazolium) for 4 hours, and measuring the absorbance at 490 nm using a Spectramax Plus384 microplate analyzer.
(§4) MDA-MB-231 and JIMT-1 cell lines were treated with the thiobenzimidazole derivatives of the present disclosure (Chemical Formula 1-10, 1-11 and 1-15) at concentrations of 0. 0.01, 0.05, 0.1, 0.1, 0.25, 0.5, 1, 5 and 10 μM, respectively, and then the cell viability and corresponding IC50 values were determined. The preparation and experimentation methods for the cell lines were the same as those used in the Example 1 experiments.

[2] = test system: HER2 positive breast cancer (HER2+ BC) cell line JIMT-1; assay: MTS cell viability assay, JIMT-1 breast cancer cell line; format: cell-based; conditions: Homo sapiens, 0 to 10 μM, FIG. 3, one range stated for both cell lines and three compounds
Procedure: as §1, §2, §3, §4

Row | IC50 [1] | IC50 [2] | SMILES
1 | 150 to 350 nM | 150 to 350 nM | COC(=O)Nc1nc2cc(Sc3ccc(N4CCS(=O)(=O)CC4)cc3)ccc2[nH]1 [1-10]
2 | 150 to 350 nM | 150 to 350 nM | COC(=O)Nc1nc2cc(Sc3ccc(N4CC(C)N(S(C)(=O)=O)C(C)C4)cc3)ccc2[nH]1 (stereo not drawn) [1-11]
3 | 150 to 350 nM | 150 to 350 nM | COC(=O)Nc1nc2cc(Sc3ccc(N4CCC(O)CC4)cc3)ccc2[nH]1 [1-15]
